Data: ChEMBL document CHEMBL1143274, “Potent and selective inhibitors of Helicobacter pylori glutamate racemase (MurI): pyridodiazepine amines” (Bioorg Med Chem Lett, 2009)
Values after ≈ are worked out from the molar mass of the structure shown.

How the values were obtained:
[1] = Protein binding in mouse plasma; format: ADME, cell-free; details: read-out: PPB (converted)
[2] = system: Liver microsomes; experiment: Metabolic stability in human liver microsomes assessed as intrinsic clearance; format: ADME, Microsome; set-up: unit not given here
[3] = target: T1, Glutamate racemase (Helicobacter pylori J99, UniProt Q9ZLT0); experiment: Inhibition of MurI in wild type Helicobacter pylori J99
T1 sequence (Q9ZLT0 whole entry): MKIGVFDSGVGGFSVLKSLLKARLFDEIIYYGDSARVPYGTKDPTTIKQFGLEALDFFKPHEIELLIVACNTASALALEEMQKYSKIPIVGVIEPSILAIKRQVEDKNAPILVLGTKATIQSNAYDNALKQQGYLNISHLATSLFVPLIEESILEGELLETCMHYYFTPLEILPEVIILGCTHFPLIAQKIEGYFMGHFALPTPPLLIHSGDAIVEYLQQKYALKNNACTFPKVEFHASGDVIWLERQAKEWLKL

[4] = system: Helicobacter pylori; experiment: Antimicrobial activity against Helicobacter pylori SS1 by NCCLS method; format: functional
[5] = Metabolic stability in mouse liver microsomes assessed as intrinsic clearance; format: ADME, Microsome; set-up: unit not given here
[6] = system: Escherichia coli; experiment: Antimicrobial activity against Escherichia coli; format: functional
[7] = Inhibition of Staphylococcus aureus MurI
[8] = Inhibition of Escherichia coli MurI
[9] = Distribution coefficient, log D of the compound; format: physicochemical; details: octanol/water
[10] = target: T2, Glutamate racemase (Enterococcus faecalis (strain ATCC 700802 / V583), UniProt Q836J0); experiment: Inhibition of Enterococcus faecalis MurI
T2 sequence (Q836J0 whole entry): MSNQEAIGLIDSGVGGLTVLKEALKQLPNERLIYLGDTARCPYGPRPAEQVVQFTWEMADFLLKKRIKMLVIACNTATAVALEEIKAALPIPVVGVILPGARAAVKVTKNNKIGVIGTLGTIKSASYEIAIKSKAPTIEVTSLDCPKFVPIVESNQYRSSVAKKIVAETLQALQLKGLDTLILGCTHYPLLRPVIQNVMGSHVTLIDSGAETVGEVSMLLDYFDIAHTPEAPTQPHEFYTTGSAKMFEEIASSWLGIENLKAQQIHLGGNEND

[11] = system: Staphylococcus aureus; experiment: Antimicrobial activity against Staphylococcus aureus; format: functional
[12] = system: Enterococcus faecalis; experiment: Antimicrobial activity against Enterococcus faecalis; format: functional

Row | Compound | fraction unbound [1] | CL [2] | IC50 [3] [µM] | MIC [4] [µg/mL] | CL [5] | MIC [6] [µg/mL] | IC50 [7] [µM] | IC50 [8] [µM] | logD [9] | IC50 [10] [µM] | MIC [11] [µg/mL] | MIC [12] [µg/mL]
1 | CNC1=Nc2ncccc2C(c2cc[nH]c2)=NC1c1cccs1 (stereo not given) | 0.246 | 19 | 0.6 | 0.4 (≈ 1.24 µM) | 36 |  |  |  |  |  |  | 
2 | CNC1=Nc2ncccc2C(c2ccco2)=NC1c1cc(C#CC(C)O)cs1 (stereo not given) | 0.091 | 7 | 4.9 | 4 (≈ 10.2 µM) | 17 |  |  |  |  |  |  | 
3 | CNC1=Nc2ncccc2C(c2ccccc2)=NC1c1cccs1 (stereo not given) | 0.041 | 40 | 2.2 | 0.17 (≈ 0.511 µM) | 82 |  |  |  |  |  |  | 
4 | CNC1=Nc2nc(C)ccc2C(c2ccccc2)=NC1c1cccs1 (stereo not given) | 0.039 | 73 | 1.7 | 0.25 (≈ 0.722 µM) | > 100 |  |  |  |  |  |  | 
5 | CNC1=Nc2ncccc2C(c2ncco2)=NC1c1cccs1 (stereo not given) | 0.257 | < 5 | 7.7 | 1 (≈ 3.09 µM) | 19 |  |  |  |  |  |  | 
6 | CNC1=Nc2ncccc2C(c2ccns2)=NC1c1cccs1 (stereo not given) | 0.241 | 18 | 1.1 | 0.32 (≈ 0.943 µM) | 37 |  |  |  |  |  |  | 
7 | CNC1=Nc2ncccc2C(c2ccco2)=NC1c1cncs1 (stereo not given) | 0.391 | 22 | 8.6 | 4 (≈ 12.4 µM) | 32 |  |  |  |  |  |  | 
8 | CNC1=Nc2ncccc2C(c2ccco2)=NC1c1ccco1 (stereo not given) | 0.193 | 9 | 18.5 | 8 (≈ 26.1 µM) | 19 |  |  |  |  |  |  | 
9 | NC1=Nc2ccccc2C(c2ccccc2)=NC1c1cccs1 (stereo not given) | 0.02 | > 100 | 400 | 32 (≈ 101 µM) | > 100 |  |  |  |  |  |  | 
10 | CCNC1=Nc2ccccc2C(c2ccccc2)=NC1c1cccs1 (stereo not given) | 0.003 | 46 | 1.1 | 2 (≈ 5.79 µM) | > 100 |  |  |  |  |  |  | 
11 | CNC1=Nc2ccc(Cl)cc2C(c2ccccc2)=NC1c1cccs1 (stereo not given) |  | 52 | 13 | 8 (≈ 21.9 µM) | > 100 |  |  |  |  |  |  | 
12 | COCCNC1=Nc2ccccc2C(c2ccccc2)=NC1c1cccs1 (stereo not given) |  | 80 | 18.9 | 32 (≈ 85.2 µM) | > 100 |  |  |  |  |  |  | 
13 | c1ccc(C2=NC(c3cccs3)C(N3CCCC3)=Nc3ccccc32)cc1 (stereo not given) |  | 43 | 4 | 8 (≈ 21.5 µM) | 87 |  |  |  |  |  |  | 
14 | CNC1=Nc2ncccc2C(c2cccs2)=NC1c1cccs1 (stereo not given) | 0.03 | 30 | 0.7 | 0.25 (≈ 0.739 µM) | > 100 |  |  |  |  |  |  | 
15 | CNC1=Nc2ncccc2C(c2ccco2)=NC1c1cccs1 (stereo not given) | 0.182 | 13 | 2 | 0.19 (≈ 0.589 µM) | 30 |  |  |  |  |  |  | 
16 | c1ccc(C2=NC(c3cccs3)C(NC3CC3)=Nc3ccccc32)cc1 (stereo not given) | 0.03 | 50 | 1.1 | 8 (≈ 22.4 µM) | 74 |  |  |  |  |  |  | 
17 | CNC1=Nc2ccccc2C(c2ccccc2)=NC1c1cccs1 (stereo not given) | 0.003 | 43 | 1.7 | 0.5 (≈ 1.51 µM) | 97 | > 64 | > 400 | > 400 | 4.1 | > 400 | > 64 | > 64
18 | CNC1=Nc2cncnc2C(c2ccccc2)=NC1c1cccs1 (stereo not given) | 0.158 | 36 | 50 | 64 (≈ 192 µM) | 26 |  |  |  |  |  |  | 
19 | CNC1=Nc2ncccc2C(c2ccco2)=NC1c1sccc1Cl (stereo not given) | 0.013 | 74 | 2.8 | 0.5 (≈ 1.4 µM) | > 150 |  |  |  |  |  |  | 
20 | CNC1=Nc2ncccc2C(c2ccco2)=NC1c1ccns1 (stereo not given) | 0.264 | 26 | 8.7 | 2 (≈ 6.18 µM) | 27 |  |  |  |  |  |  | 
21 | CNC1=Nc2ncccc2C(c2nccs2)=NC1c1cccs1 (stereo not given) | 0.17 | < 14 | 1.7 | 1 (≈ 2.95 µM) | 33 |  |  |  |  |  |  | 
22 | CNC1=Nc2ncccc2C(C2CCCC2)=NC1c1cccs1 (stereo not given) | 0.048 | 59 | 4.1 | 8 (≈ 24.7 µM) | > 100 |  |  |  |  |  |  | 
23 | CNC1=Nc2c(ccc[n+]2[O-])C(c2ccccc2)=NC1c1cccs1 (stereo not given) | 0.353 | < 14 | 67 | 16 (≈ 45.9 µM) | 41 |  |  |  |  |  |  | 
24 | OC1CN(C2=Nc3ccccc3C(c3ccccc3)=NC2c2cccs2)C1 (stereo not given) | 0.01 |  |  | 0.25 (≈ 0.669 µM) |  |  |  |  |  |  |  | 
25 | CCCNC1=Nc2ccccc2C(c2ccccc2)=NC1c1cccs1 (stereo not given) |  | 30 | 4 | 16 (≈ 44.5 µM) | > 100 |  |  |  |  |  |  | 
